{"source": "patent US20050026235A1", "about": "(priority 2003, published 2005)", "key": {"[1]": {"conditions": "literature values (Cevc 1993; Adrian et al. 1992); cited from earlier work"}, "PLA2": {"target": "PLA2 (Apis mellifera, UniProt P00630)", "sequence (P00630 34-167 limits assumed)": "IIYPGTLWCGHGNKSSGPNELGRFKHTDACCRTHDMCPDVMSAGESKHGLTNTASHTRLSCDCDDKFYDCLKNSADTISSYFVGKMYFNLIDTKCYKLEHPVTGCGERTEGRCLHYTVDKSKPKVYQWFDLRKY", "conditions": "pH 8"}, "PLA2 from bee venom": {"target": "PLA2 from bee venom (Apis mellifera, UniProt P00630)", "sequence (P00630 34-167 limits assumed)": "as above"}, "[2]": {"target": "Clostridium perfringens PLC (Clostridium perfringens, UniProt P0C216)", "sequence (P0C216 29-398 limits assumed)": "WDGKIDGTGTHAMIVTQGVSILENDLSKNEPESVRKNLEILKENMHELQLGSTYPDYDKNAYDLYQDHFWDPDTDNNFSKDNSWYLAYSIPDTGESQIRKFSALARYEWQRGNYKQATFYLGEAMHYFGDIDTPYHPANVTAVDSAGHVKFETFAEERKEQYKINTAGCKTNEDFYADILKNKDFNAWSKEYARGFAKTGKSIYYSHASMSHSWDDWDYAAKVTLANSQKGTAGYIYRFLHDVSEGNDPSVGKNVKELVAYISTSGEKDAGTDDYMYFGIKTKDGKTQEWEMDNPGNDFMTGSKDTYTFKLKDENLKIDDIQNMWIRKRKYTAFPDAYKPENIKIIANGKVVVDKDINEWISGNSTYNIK"}}}
{"compound": "CCCCCCCCCCCCCC(=O)OC[C@H](COP(=O)([O-])OCC[N+](C)(C)C)OC(=O)CCCCCCCCCCCCC", "note": "[DMPC]", "values": [{"measurement": "CMC", "setting": "[1]", "result": "about 4 nM"}]}
{"compound": "1,2-dimyristoyl-sn-glycero-3-phosphoethanolamine-N-(Oregon Green 500, 5-isomer) [compound 84]", "values": [{"measurement": "time until all substrate converted to polar product", "setting": "PLA2", "result": "about 30 min"}]}
{"compound": "CCCCCCCCCCCCCCCCOCC(COCC(F)(F)F)OP(=O)(O)OC", "note": "(centres unmarked) [inhibitor 122]", "values": [{"measurement": "IC50", "setting": "PLA2 from bee venom", "result": "~2000", "unit": "nM"}]}
{"compound": "1,2-dioleoyl-sn-glycero-3-phosphoethanolamine-N-(Oregon Green® 488, 5-isomer) [compound 60]", "values": [{"measurement": "cleavage activity", "setting": "[2]", "result": "no activity was observed"}]}
{"compound": "CCCCCCCCCCCCCC(=O)OC[C@H](COP(=O)(O)OC[C@H](N)C(=O)O)OC(=O)CCCCCCCCCCCCC", "note": "[DMPS]", "values": [{"measurement": "CMC", "setting": "[1]", "result": "about 60 nM"}]}
